# “And” between values parts separate entries of the source, which are not always exact repeats. Equal values may be shown once.
# Assays:
# [1] = system: patients with low urinary tract syndrome (LUTS) and mild to moderate hypertension; test: Clinical study, Amlodipine 5 mg vs Terazosin 2 mg for 4 weeks: IPSS, urinary flow rate, blood pressure; assay type: in vivo, human; parameters: key to BOO (obstructive symptoms score) / OAB (irritative symptoms score): IPSS sub-scores in points (symptom items of IPSS); details: for Percentage of improvement at Week 4: BOO / Percentage of improvement at Week 4: DBP / Percentage of improvement at Week 4: IPSS / Percentage of improvement at Week 4: OAB / Percentage of improvement at Week 4: Qave / Percentage of improvement at Week 4: Qmax / Percentage of improvement at Week 4: SBP: Week 4 vs Week 0
# From the text: 1) Male, 50-75 years old. […] 3) International Prostate Symptom Score (IPSS)≧8 points
# Storage, reservation and delivery of drugs were in accordance with Standard Operation Procedure (SOP).
# Obstructive symptoms score includes hesitancy of micturition, reduced or interrupted urinary stream and sensation of incomplete bladder emptying, which mainly reflect BOO. Irritative symptoms score refers to urinary urgency and frequency, and an increase in night micturition, reflecting OAB symptoms. In this study, a total score of IPSS is considered as primary index. Sub-scores on BOO and OAB were also considered.
# All data, doubly entered using Epi-info 3.0 and presented as mean±standard deviation (SD), were analyzed using SAS 8.0. A paired t-test was employed to compare pre- and post-treatment scores, and a multiple regression analysis was further performed to adjust for important covariates. Difference was considered significant at P<0.05.
# rats with BPH = test: Urodynamic parameters and urine volumes in castrated, testosterone propionate-treated SD rats with BPH; assay type: in vivo, rat (male SD)
# Method: Afterwards, the bilateral testicles of the rats were resected under an aseptic condition. Then the rats received an intramuscular injection of penicillin at 20000 U/kg/d for 3 days, and 1 week later a subcutaneous injection of testosterone propionate (dissolved in olive oil) at 0.5 mg/pec, once daily for 21 consecutive days.
# (§1) In the treatment groups, the rats were orally administered by infusion at 1 ml/100 g body weight once daily for 14 consecutive days after 7-day injection with testosterone propionate. In the blank and model groups, the rats were orally perfused with isovolumetric physiological saline.
# (§2) The rats were anaesthetized by a peritoneal injection of 20% ethyl carbamate at a dose of 1000 mg/kg. The rat bladder was exposed by cutting a longitudinal incision on the upper of pubic arch. Piercing the top of bladder made a little hole, where a catheter with cannulas was inserted. The outside cannula (Φ 1.2 mm) with a pressreceptor was linked to PC-Lab multi-lead physiological recording system. The inside cannula (Φ 0.61 mm) was connected to an injection pump with constant infusion speed (2 ml/h). After last administration, the urodynamic parameters, single urine volume, and residual urine volume in rats were respectively collected.
# (§3) Data were presented as mean±SD. One way-ANOVA was employed for group comparison.
# [2] = system: spontaneous hypertensive rats (SHR) with prostate hyperplasia; test: Urodynamic parameters and urine volumes in spontaneous hypertensive rats (SHR) with prostate hyperplasia; assay type: in vivo, rat (SHR); details: Amlodipine 0.5 mg/kg (A3) oral once daily 14 days
# Method: as §1, §2, §3
# [3] = Amlodipine 5 mg or Terazosin 2 mg oral for 4 weeks
# [4] = Week 0 (before treatment), groups Amlodipine 5 mg (N=90), Terazosin 2 mg (N=62)
# [5] = Week 4, Amlodipine 5 mg or Terazosin 2 mg oral for 4 consecutive weeks
# [6] = Amlodipine 0.25 mg/kg (A1) oral once daily 14 days
# [7] = Amlodipine 0.5 mg/kg (A2) oral once daily 14 days
# [8] = multiple regression adjusted for age and BMI, Amlodipine 5 mg vs Terazosin 2 mg, 4 weeks
# [9] = multiple regression, crude, Amlodipine 5 mg vs Terazosin 2 mg, 4 weeks
smiles,measurement,setting,value
COc1cc2nc(N3CCN(C(=O)C4CCCO4)CC3)nc(N)c2cc1OC (stereo not drawn) [Terazosin],indices improved between week 0 and week 4,[1]; [3],"remarkable improvement in IPSS, BOO-related score, maximum urinary flow rate (Qmax) and Qave, and a decrease in systolic blood pressure"
same,indices without improvement between week 0 and week 4,[1]; [3],no improvement in OAB-related score and diastolic blood pressure
same,BOO (obstructive symptoms score),[1]; [4],6.6 ± 3.5
same,DBP,[1]; [4],86.6 ± 9.0 mmHg
same,IPSS,[1]; [4],13.2 ± 4.4
same,OAB (irritative symptoms score),[1]; [4],6.6 ± 3.0
same,Qave,[1]; [4],8.9 ± 3.9 mL/s
same,Qmax,[1]; [4],17.7 ± 7.0 mL/s
same,SBP,[1]; [4],152.8 ± 15.9 mmHg
same,BOO (obstructive symptoms score),[1]; [5],4.2 ± 4.3
same,DBP,[1]; [5],84.5 ± 11.4 mmHg
same,IPSS,[1]; [5],9.4 ± 5.9
same,OAB (irritative symptoms score),[1]; [5],5.3 ± 2.8
same,Qave,[1]; [5],9.9 ± 4.2 mL/s
same,Qmax,[1]; [5],19.4 ± 7.4 mL/s
same,SBP,[1]; [5],147.0 ± 17.8 mmHg
same,Percentage of improvement at Week 4: BOO,[1]; [3],32.2 ± 63.5 %
same,Percentage of improvement at Week 4: DBP,[1]; [3],2.3 ± 10.1% and 2.31 ± 10.12%
same,Percentage of improvement at Week 4: IPSS,[1]; [3],28.1 ± 40.5 % and 28.15 ± 40.5%
same,Percentage of improvement at Week 4: OAB,[1]; [3],7.7 ± 54.8%
same,Percentage of improvement at Week 4: Qave,[1]; [3],13.8 ± 25.9 % and 13.77 ± 25.86%
same,Percentage of improvement at Week 4: Qmax,[1]; [3],12.8 ± 30.5 % and 12.8 ± 30.47%
same,Percentage of improvement at Week 4: SBP,[1]; [3],3.3 ± 11.9 % and 3.28 ± 11.92%
CCOC(=O)C1=C(COCCN)NC(C)=C(C(=O)OC)C1c1ccccc1Cl (stereo not drawn) [Amlodipine],Interval of micturition,rats with BPH; [6],734.8 ± 210.5 s
same,Peak value of micturition pressure,rats with BPH; [6],37.5 ± 7.0 mmHg
same,Point pressure of micturition,rats with BPH; [6],33.4 ± 3.3 mmHg
same,Qave. (average urinary flow rate),rats with BPH; [6],3.7 ± 1.2 mL/s
same,Time of micturition,rats with BPH; [6],8.9 ± 1.6 s
same,Interval of micturition,rats with BPH; [7],762.3 ± 274.8 s
same,Peak value of micturition pressure,rats with BPH; [7],30.5 ± 5.5 mmHg
same,Point pressure of micturition,rats with BPH; [7],30.6 ± 3.9 mmHg
same,Qave. (average urinary flow rate),rats with BPH; [7],4.0 ± 1.9 mL/s
same,Time of micturition,rats with BPH; [7],8.4 ± 1.8 s
same,Interval of micturition,[2],786.0 ± 237.5 s
same,Peak value of micturition pressure,[2],31.8 ± 7.3 mmHg
same,Point pressure of micturition,[2],31.4 ± 3.6 mmHg
same,Qave. (average urinary flow rate),[2],4.4 ± 1.6 mL/s
same,Time of micturition,[2],8.0 ± 1.1 s
same,BOO (obstructive symptoms score),[1]; [4],9.1 ± 4.2
same,DBP,[1]; [4],88.6 ± 8.9 mmHg
same,OAB (irritative symptoms score),[1]; [4],7.3 ± 3.3
same,Qave,[1]; [4],8.9 ± 4.1 mL/s
same,Qmax,[1]; [4],17.3 ± 6.7 mL/s
same,SBP,[1]; [4],155.4 ± 16.1 mmHg
same,BOO (obstructive symptoms score),[1]; [5],5.8 ± 4.6
same,DBP,[1]; [5],82.0 ± 8.9 mmHg
same,IPSS,[1]; [5],11.1 ± 6.7
same,OAB (irritative symptoms score),[1]; [5],5.5 ± 3.2
same,Qave,[1]; [5],8.8 ± 3.8 mL/s
same,Qmax,[1]; [5],17.7 ± 6.9 mL/s
same,SBP,[1]; [5],140.9 ± 15.4 mmHg
same,Percentage of improvement at Week 4: BOO,[1]; [3],33.3 ± 53.2 %
same,Percentage of improvement at Week 4: DBP,[1]; [3],7.2 ± 7.1 % and 7.22 ± 7.09%
same,Percentage of improvement at Week 4: IPSS,[1]; [3],30.2 ± 39.7 % and 30.17 ± 39.7%
same,Percentage of improvement at Week 4: OAB,[1]; [3],17.3 ± 49.3 %
same,Percentage of improvement at Week 4: Qave,[1]; [3],5.0 ± 35.2% and 5.04 ± 35.25%
same,Percentage of improvement at Week 4: Qmax,[1]; [3],7.1 ± 41.1% and 7.09 ± 41.10%
same,Percentage of improvement at Week 4: SBP,[1]; [3],8.9 ± 9.6 % and 8.89 ± 9.61%
same,"Percentage of improvement, (2)-(1) Amlodipine minus Terazosin, β Adjust: BOO",[1]; [8],0.3
same,"Percentage of improvement, (2)-(1) Amlodipine minus Terazosin, β Adjust: DBF",[1]; [8],5.1
same,"Percentage of improvement, (2)-(1) Amlodipine minus Terazosin, β Adjust: IPSS",[1]; [8],1.4
same,"Percentage of improvement, (2)-(1) Amlodipine minus Terazosin, β Adjust: OAB",[1]; [8],8.6
same,"Percentage of improvement, (2)-(1) Amlodipine minus Terazosin, β Adjust: Qave",[1]; [8],−8.4
same,"Percentage of improvement, (2)-(1) Amlodipine minus Terazosin, β Adjust: Qmax",[1]; [8],−5.0
same,"Percentage of improvement, (2)-(1) Amlodipine minus Terazosin, β Adjust: SBP",[1]; [8],5.7
same,"Percentage of improvement, (2)-(1) Amlodipine minus Terazosin, β Crude: BOO",[1]; [9],1.1
same,"Percentage of improvement, (2)-(1) Amlodipine minus Terazosin, β Crude: DBF",[1]; [9],4.9
same,"Percentage of improvement, (2)-(1) Amlodipine minus Terazosin, β Crude: IPSS",[1]; [9],2.0
same,"Percentage of improvement, (2)-(1) Amlodipine minus Terazosin, β Crude: OAB",[1]; [9],9.6
same,"Percentage of improvement, (2)-(1) Amlodipine minus Terazosin, β Crude: Qave",[1]; [9],−8.7
same,"Percentage of improvement, (2)-(1) Amlodipine minus Terazosin, β Crude: Qmax",[1]; [9],−5.7
same,"Percentage of improvement, (2)-(1) Amlodipine minus Terazosin, β Crude: SBP",[1]; [9],5.6

# — patent US20100048644A1 (BEIJING HUAANFO BIOMEDICAL RESEARCH CENTRE INC., priority 2006, published 2010)
